Reference: patent US20240246954A1, “COMPOSITIONS AND METHODS FOR INHIBITING KRAS” (TheRas, Inc., priority 2021, published 2024)

Columns and labels:
[1] = target: T1, Avi-KRAS G12D/Q25A (1-169) GppNHp/3×FLAG-PI3KCA (157-299) (Homo sapiens, UniProt P01116, G12D/Q25A); assay: HTRF PI3KCA-KRAS G12D/Q25A-GppNHp disruption assay; assay type: biochemical; conditions: 1 h incubation
T1 construct: Avi-KRAS G12D/Q25A (1-169) GppNHp
How it was run: (§1)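 HTRF read-out (320 nm excitation, 615 nm emission) after two 1 h room-temperature incubations, first with protein mix, then detection reagents. Ten-point dilution series starting at 100 μM; results given as % activity relative to DMSO at 100%.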

[2] = target: T2, Avi-KRAS G12D (1-169) GppNHp/RAF1 RBD-3×FLAG (52-151) (Homo sapiens, UniProt P01116, G12D); assay: HTRF Raf1-KRAS G12D-GppNHp disruption assay; assay type: biochemical; conditions: 1 h incubation
T2 construct: Avi-KRAS G12D (1-169) GppNHp
T2 sequence (P01116 1-169 isoform P01116-2 G12D limits assumed): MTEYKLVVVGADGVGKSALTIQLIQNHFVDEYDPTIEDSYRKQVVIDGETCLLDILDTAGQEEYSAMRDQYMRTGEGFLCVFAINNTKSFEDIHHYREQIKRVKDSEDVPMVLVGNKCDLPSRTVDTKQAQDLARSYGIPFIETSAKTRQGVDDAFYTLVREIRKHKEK
How it was run: as §1

T1 sequence (P01116 1-169 isoform P01116-2 G12D/Q25A limits assumed): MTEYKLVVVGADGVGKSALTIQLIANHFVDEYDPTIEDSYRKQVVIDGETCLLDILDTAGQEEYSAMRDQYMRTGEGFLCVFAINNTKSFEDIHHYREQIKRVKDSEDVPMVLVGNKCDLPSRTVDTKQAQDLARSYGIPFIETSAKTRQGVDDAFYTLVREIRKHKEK

| IC50 [1] [µM] | IC50 [2] [µM] | SMILES |
| --- | --- | --- |
| 1 to 10 | 0.1 to 1 | Nc1nc2c(-c3c(C(F)(F)F)cc4c(N5CCNCC5)nc(OC[C@@]56CCCN5C[C@H](F)C6)nc4c3F)ccc(F)c2s1 [Compound 206] |
| 10 to 30 | 10 to 30 | CN1CCC[C@H]1COc1nc(N(CCO)C2CNC2)c2cc(Cl)c(-c3ccc(F)c4sc(N)nc34)c(F)c2n1 [Compound 208] |
| 1 to 10 | 0.1 to 1 | C[C@@H]1CNCCN1c1nc(OC[C@]23CCCN2C[C@H](F)C3)nc2c(F)c(-c3ccc(F)c4sc(N)nc34)c(C(F)(F)F)cc12 [Compound 209] |
| 10 to 30 | 1 to 10 | C[C@@H]1CN(c2nc(OC[C@]34CCCN3C[C@H](F)C4)nc3c(F)c(-c4ccc(F)c5sc(N)nc45)c(C(F)(F)F)cc23)CCN1 [Compound 210] |
| 10 to 30 | 1 to 10 | Nc1nc2c(-c3c(C(F)(F)F)cc4c(N5CCNCC5)nc(OCC56CCCN5CC(F)(F)C6)nc4c3F)ccc(F)c2s1 (stereo not shown) [Compound 211] |
| 1 to 10 | 0.1 to 1 | C[C@@H]1CN(c2nc(OC[C@@]34CCCN3C[C@H](F)C4)nc3c(F)c(-c4ccc(F)c5sc(N)nc45)c(C(F)(F)F)cc23)CCN1 [Compound 212] |
| 10 to 30 | 0.1 to 1 | C[C@@H]1CN(c2nc(OC[C@]34CCCN3C[C@H](F)C4)nc3c(F)c(-c4ccc(F)c5sc(N)nc45)c(C(F)(F)F)cc23)[C@@H](C)CN1 [Compound 214] |
| 10 to 30 | 1 to 10 | C[C@@H]1CN(c2nc(OC[C@]34CCCN3C[C@H](F)C4)nc3c(F)c(-c4ccc(F)c5sc(N)nc45)c(C(F)(F)F)cc23)C[C@H](C)N1 [Compound 215] |
| 1 to 10 | 1 to 10 | COc1cc2c(N3CCNCC3)nc(OCC34CCCN3CCC4)nc2c(F)c1-c1ccc(F)c2sc(N)nc12 [Compound 216, 7-fluoro-4-(8-fluoro-6-methoxy-4-(piperazin-1-yl)-2-((tetrahydro-1H-pyrrolizin-7a(5H)-yl)methoxy)quinazolin-7-yl)benzo[d]thiazol-2-amine] |
| 1 to 10 | 1 to 10 | CN1CCC[C@H]1COc1nc(N2CCNCC2)c2cc(C(F)F)c(-c3ccc(F)c4sc(N)nc34)c(F)c2n1 [Compound 217, 4-(6-(difluoromethyl)-8-fluoro-2-(((S)-1-methylpyrrolidin-2-yl)methoxy)-4-(piperazin-1-yl)quinazolin-7-yl)-7-fluorobenzo[d]thiazol-2-amine] |
| 10 to 30 | 1 to 10 | C[C@H]1CNCCN1c1nc(OC[C@@]23CCCN2C[C@@H](F)C3)nc2c(F)c(-c3ccc(F)c4sc(N)nc34)c(C(F)(F)F)cc12 [Compound 222] |
| 10 to 30 | 10 to 30 | C[C@@H]1CN(c2nc(OC[C@@]34CCCN3C[C@@H](F)C4)nc3c(F)c(-c4ccc(F)c5sc(N)nc45)c(C(F)(F)F)cc23)[C@@H](C)CN1 [Compound 224] |
| 10 to 30 | 1 to 10 | C[C@@H]1CN(c2nc(OC[C@@]34CCCN3C[C@@H](F)C4)nc3c(F)c(-c4ccc(F)c5sc(N)nc45)c(C(F)(F)F)cc23)CCN1 [Compound 225] |
| 1 to 10 | 1 to 10 | Nc1nc2c(-c3c(C(F)F)cc4c(N5CCNCC5)nc(OCC56CCCN5CCC6)nc4c3F)ccc(F)c2s1 [Compound 227] |
| 1 to 10 | 1 to 10 | Nc1nc2c(-c3c(OC(F)(F)F)cc4c(N5CCNCC5)nc(OCC56CCCN5CCC6)nc4c3F)ccc(F)c2s1 [Compound 228, 7-fluoro-4-(8-fluoro-4-(piperazin-1-yl)-2-((tetrahydro-1H-pyrrolizin-7a(5H)-yl)methoxy)-6-(trifluoromethoxy)quinazolin-7-yl)benzo[d]thiazol-2-amine] |
| 10 to 30 | 10 to 30 | C[C@@H]1CN(c2nc(OC[C@@]34CCCN3C[C@@H](F)C4)nc3c(F)c(-c4ccc(F)c5sc(N)nc45)c(C(F)(F)F)cc23)C[C@H](C)N1 [Compound 229] |
| 1 to 10 | 1 to 10 | Nc1nc2c(-c3c(OC(F)(F)F)cc4c(N5CC6CCC(C5)N6)nc(OCC56CCCN5CCC6)nc4c3F)ccc(F)c2s1 [Compound 231] |
| 1 to 10 | 1 to 10 | Nc1nc2c(-c3c(OC(F)(F)F)cc4c(N5CC6CCC(C5)N6)nc(OC[C@@]56CCCN5C[C@H](F)C6)nc4c3F)ccc(F)c2o1 [Compound 233] |
| 1 to 10 | 1 to 10 | Nc1nc2c(-c3c(OC(F)F)cc4c(N5CCNCC5)nc(OCC56CCCN5CCC6)nc4c3F)ccc(F)c2s1 [Compound 234, 4-(6-(difluoromethoxy)-8-fluoro-4-(piperazin-1-yl)-2-((tetrahydro-1H-pyrrolizin-7a(5H)-yl)methoxy)quinazolin-7-yl)-7-fluorobenzo[d]thiazol-2-amine] |
| 1 to 10 | 0.1 to 1 | Nc1nc2c(-c3c(-c4ccoc4)cc4c(N5CC6CCC(C5)N6)nc(OC[C@@]56CCCN5C[C@H](F)C6)nc4c3F)ccc(F)c2s1 [Compound 237] |

| IC50 [1] [µM] | IC50 [2] [µM] | SMILES |
| --- | --- | --- |
| 1 to 10 | 1 to 10 | Nc1nc2c(-c3c(C(F)(F)F)cc4c(N5CC6CC5CN6)nc(OC[C@@]56CCCN5C[C@H](F)C6)nc4c3F)ccc(F)c2s1 (stereo partly shown) [Compound 239] |
| 1 to 10 | 1 to 10 | Nc1nc2c(-c3c(OC(F)(F)F)cc4c(N5CC6CC5CN6)nc(OC[C@@]56CCCN5C[C@H](F)C6)nc4c3F)ccc(F)c2s1 (stereo partly shown) [Compound 240] |
| 10 to 30 | 10 to 30 | Nc1nc2c(-c3c(Cl)cc4c(N5CCCNCC5)ncnc4c3F)ccc(F)c2s1 [Compound 242] |
| 10 to 30 | 10 to 30 | Nc1nc2c(-c3c(Cl)cc4c(N5CC6CNC(C6)C5)ncnc4c3F)ccc(F)c2s1 (stereo not shown) [Compound 243] |
| 1 to 10 | 1 to 10 | CN1CC(C)(C)C[C@H]1COc1nc(N2CC3CCC(C2)N3)c2cc(C(F)(F)F)c(-c3ccc(F)c4sc(N)nc34)c(F)c2n1 [Compound 253] |
| 1 to 10 | 1 to 10 | Nc1nc2c(-c3c(C(F)(F)F)cc4c(NC5CC6CC[C@@H](C5)N6)nc(OCC56CCCN5CCC6)nc4c3F)ccc(F)c2s1 (stereo partly shown) [Compound 263] |
| 1 to 10 | 0.1 to 1 | Nc1nc2c(-c3c(C(F)(F)F)cc4c(NC5CC6CC[C@H]5N6)nc(OCC56CCCN5CCC6)nc4c3F)ccc(F)c2s1 (stereo partly shown) [Compound 265] |
| 1 to 10 | 0.1 to 1 | Nc1nc2c(-c3c(C(F)(F)F)cc4c(NC5CC6CC[C@H]5N6)nc(OCC56CCCN5CCC6)nc4c3F)ccc(F)c2s1 (stereo partly shown) [Compound 266] |
| 1 to 10 | 1 to 10 | CN(c1nc(OCC23CCCN2CCC3)nc2c(F)c(-c3ccc(F)c4sc(N)nc34)c(C(F)(F)F)cc12)C1CC2CC[C@@H](C1)N2 (stereo partly shown) [Compound 268] |
| 1 to 10 | 0.1 to 1 | NCC(=O)N1C2CCC1CN(c1nc(OC[C@@]34CCCN3C[C@H](F)C4)nc3c(F)c(-c4ccc(F)c5sc(N)nc45)c(C(F)(F)F)cc13)C2 [Compound 272] |
| 1 to 10 | 1 to 10 | NC(=O)N1C2CCC1CN(c1nc(OC[C@@]34CCCN3C[C@H](F)C4)nc3c(F)c(-c4ccc(F)c5sc(N)nc45)c(C(F)(F)F)cc13)C2 [Compound 273] |
| 1 to 10 | 1 to 10 | CN(c1nc(OCC23CCCN2CCC3)nc2c(F)c(-c3ccc(F)c4sc(N)nc34)c(C(F)(F)F)cc12)C1CCNCC1 [Compound 280] |
| 10 to 30 | 10 to 30 | COc1cc2c(N3C[C@@H](C)NC[C@@H]3C)nc(OC[C@@]34CCCN3C[C@H](F)C4)nc2c(F)c1-c1ccc(F)c2sc(N)nc12 [Compound 281, 4-(4-((2S,5R)-2,5-dimethylpiperazin-1-yl)-8-fluoro-2-(((2R,7aS)-2-fluorotetrahydro-1H-pyrrolizin-7a(5H)-yl)methoxy)-6-methoxyquinazolin-7-yl)-7-fluorobenzo[d]thiazol-2-amine] |
| 1 to 10 | 1 to 10 | C[C@@H]1CN(c2nc(OC[C@@]34CCCN3C[C@H](F)C4)nc3c(F)c(-c4ccc(F)c5sc(N)nc45)c(OC(F)F)cc23)[C@@H](C)CN1 [Compound 282, 4-(6-(difluoromethoxy)-4-((2S,5R)-2,5-dimethylpiperazin-1-yl)-8-fluoro-2-(((2R,7aS)-2-fluorotetrahydro-1H-pyrrolizin-7a(5H)-yl)methoxy)quinazolin-7-yl)-7-fluorobenzo[d]thiazol-2-amine] |
| 0.1 to 1 | 0.1 to 1 | CO[C@@H]1C[C@@H](COc2nc(N3CC4CCC(C3)N4)c3cc(C(F)(F)F)c(-c4ccc(F)c5sc(N)nc45)c(F)c3n2)N(C)C1 [Compound 284] |
| 0.1 to 1 | 0.1 to 1 | Nc1nc2c(-c3c(C(F)(F)F)cc4c(NC5C[C@H]6CCC5N6)nc(OCC56CCCN5CCC6)nc4c3F)ccc(F)c2s1 (stereo partly shown) [Compound 286] |
| 1 to 10 | 0.1 to 1 | CN(c1nc(OC[C@@]23CCCN2C[C@H](F)C3)nc2c(F)c(-c3ccc(F)c4sc(N)nc34)c(C(F)(F)F)cc12)C1C2C[C@H]1CN2 (stereo partly shown) [Compound 288] |
| 1 to 10 | 1 to 10 | C[C@@H]1CNC[C@@H]1N(C)c1nc(OC[C@@]23CCCN2C[C@H](F)C3)nc2c(F)c(-c3ccc(F)c4sc(N)nc34)c(C(F)(F)F)cc12 [Compound 292] |
| 1 to 10 | 1 to 10 | CC(F)(F)c1cc2c(N3CCNCC3)nc(OCC34CCCN3CCC4)nc2c(F)c1-c1ccc(F)c2sc(N)nc12 [Compound 295, 4-(6-(1,1-difluoroethyl)-8-fluoro-4-(piperazin-1-yl)-2-((tetrahydro-1H-pyrrolizin-7a(5H)-yl)methoxy)quinazolin-7-yl)-7-fluorobenzo[d]thiazol-2-amine] |

| SMILES | IC50 [1] [µM] | IC50 [2] [µM] |
| --- | --- | --- |
| CN(c1nc(OCC23CCCN2CCC3)nc2c(F)c(-c3ccc(F)c4sc(N)nc34)c(C(F)(F)F)cc12)[C@@H]1CCN(C(=O)C2CN2)C1 (stereo partly shown) [Compound 230] | 1 to 10 | 1 to 10 |
| Nc1nc2c(-c3c(C(F)(F)F)cc4c(NC5CN(C(=O)C6CN6)C5)nc(OCC56CCCN5CCC6)nc4c3F)ccc(F)c2s1 (stereo not shown) [Compound 235] | 10 to 30 | 1 to 10 |
